What follows are compounds tested against T1, ERα (Homo sapiens, UniProt P03372) (assay: Estrogen receptor degradation activity (breast cancer cell ERα in cell western assay)). Details: MCF7 cells, 0.3 μM, 4 hours, % of ERα levels decrease relative to fulvestrant.
T1 construct: host or cells: MCF7
T1 sequence (P03372 1-595): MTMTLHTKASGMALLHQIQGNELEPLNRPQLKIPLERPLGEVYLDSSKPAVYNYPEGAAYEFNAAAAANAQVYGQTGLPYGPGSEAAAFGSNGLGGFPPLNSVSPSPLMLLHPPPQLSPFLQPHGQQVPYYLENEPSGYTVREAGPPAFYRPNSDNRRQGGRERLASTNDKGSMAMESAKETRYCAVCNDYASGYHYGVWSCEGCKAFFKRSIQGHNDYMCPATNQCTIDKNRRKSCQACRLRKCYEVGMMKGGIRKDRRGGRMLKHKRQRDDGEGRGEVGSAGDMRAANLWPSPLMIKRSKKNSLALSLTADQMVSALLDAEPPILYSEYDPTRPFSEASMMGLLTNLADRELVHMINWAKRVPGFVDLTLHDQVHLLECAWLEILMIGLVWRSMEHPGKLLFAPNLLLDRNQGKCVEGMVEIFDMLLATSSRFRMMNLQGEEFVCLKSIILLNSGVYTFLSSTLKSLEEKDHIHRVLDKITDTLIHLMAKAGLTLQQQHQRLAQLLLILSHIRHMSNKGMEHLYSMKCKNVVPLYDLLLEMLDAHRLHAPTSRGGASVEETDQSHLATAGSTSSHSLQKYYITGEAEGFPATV
Type: cell-based
Description: Said test involves measuring the in vitro degradation activity of the compounds of the Table 1a.
The measurements of the degradation activities were made using a breast cancer cell ERα in cell western assay as described hereunder.
MCF7 cells (ATCC) were seeded in 384 wells microplate (collagen coated) at a concentration of 10000 cells/30 μL per well in red phenol free MEM alpha medium (invitrogen) containing 5% charcoal dextran striped FBS. The following day, 9 points serial 1:5 dilution of each compound was added to the cells in 2.5p L at final concentrations ranging from 0.3-0.0000018 μM (in table 2), or 0.1 μM for fulvestrant (using as positive control). At 4 hours post compound addition the cells were fixed by adding 25 μL of formalin (final concentration 5% formalin containing 0.1% triton) for 10 minutes at room temperature and then washed twice with PBS. Then, 50 μL of LI-COR blocking buffer containing 0.1% Triton was added to plate for 30 minutes at room temperature. LI-COR blocking buffer was removed and cells were incubated overnight at cold room with 50 μL anti-ER rabbit monoclonal antibody (Thermo scientific MA1-39540) diluted at 1:1000 in LI-COR blocking buffer containing 0.1% tween-20. Wells which were treated with blocking buffer but no antibody were used as background control. Wells were washed twice with PBS (0.1% tween-20) and incubated at 37° C. for 60 minutes in LI-COR (0.1% tween-20) containing goat anti-rabbit antibody Alexa 488 (1:1000) and Syto-64 a DNA dye (2 μM final concentration). Cells were then washed 3 times in PBS and scanned in ACUMEN explorer (TTP-Labtech). Integrated intensities in the green fluorescence and red fluorescence were measured to determine the levels of ERα and DNA respectively.
The degradation activity with respect to estrogen receptors in this test is given by the concentration which degrades 50% of the estrogen receptor (or IC50) in nM.
The % of ERα levels decrease were determined as follows: % inhibition=100*(1−(sample−fulvestrant: DMSO−fulvestrant)).

| % Degradation At 0.3 μM [%] | SMILES |
| --- | --- |
| 69 | O=C(O)C(F)(F)F.O=C(O)c1ccc2c(c1)CCCC(c1ccc(Cl)cc1Cl)=C2c1ccc(CC2(F)CCN(CCCF)C2)cc1 (single isomer, unassigned; isomer 1) [Compound 23, 8-(2,4-dichlorophenyl)-9-(4-((3-fluoro-1-(3-fluoropropyl)pyrrolidin-3-yl)methyl)phenyl)-6,7-dihydro-5H-benzo[7]annulene-3-carboxylic acid, 2,2,2-trifluoroacetic acid, Isomer 1] |
| 93 | Cl.O=C(O)c1ccc2c(c1)CCCC(c1ccc(Cl)cc1)=C2c1ccc(CC2CCN(CCCF)C2)cc1 (single isomer, unassigned; isomer 1) [Compound 37, 8-(4-chlorophenyl)-9-(4-((1-(3-fluoropropyl)pyrrolidin-3-yl)methyl)phenyl)-6,7-dihydro-5H-benzo[7]annulene-3-carboxylic acid hydrochloride, Isomer 1] |
| 76 | Cl.O=C(O)c1ccc2c(c1)CCCC(c1cccc(C(F)(F)F)c1)=C2c1ccc(CC2CCN(CCCF)C2)cc1 (single isomer, unassigned; isomer 1) [Compound 39, 9-(4-((1-(3-fluoropropyl)pyrrolidin-3-yl)methyl)phenyl)-8-(3-(trifluoromethyl)phenyl)-6,7-dihydro-5H-benzo[7]annulene-3-carboxylic acid hydrochloride, Isomer 1] |
| 76 | O=C(O)c1ccc2c(c1)CCCC(c1ccccc1C(F)(F)F)=C2c1ccc(CC2CCN(CCC(F)F)C2)cc1 (stereo not shown) [Compound 33, 9-(4-((1-(3,3-difluoropropyl)pyrrolidin-3-yl)methyl)phenyl)-8-(2-(trifluoromethyl)phenyl)-6,7-dihydro-5H-benzo[7]annulene-3-carboxylic acid] |
| 78 | Cc1c(C2=C(c3ccc(CC4CCN(CCC(F)F)C4)cc3)c3ccc(C(=O)O)cc3CCC2)cccc1C(F)(F)F.Cl (single isomer, unassigned; isomer 1) [Compound 28, 9-(4-((1-(3,3-difluoropropyl)pyrrolidin-3-yl)methyl)phenyl)-8-(2-methyl-3-(trifluoromethyl)phenyl)-6,7-dihydro-5H-benzo[7]annulene-3-carboxylic acid hydrochloride, Isomer 1] |
| 90 | CC1CCc2cc(C(=O)O)ccc2C(c2ccc(CC3CCN(CCCF)C3)cc2)=C1c1ccc(C(F)(F)F)cc1 (single isomer, unassigned; isomer 2) [Compound 42, 9-(4-((1-(3-fluoropropyl)pyrrolidin-3-yl)methyl)phenyl)-7-methyl-8-(4-(trifluoromethyl)phenyl)-6,7-dihydro-5H-benzo[7]annulene-3-carboxylic acid, Isomer 2] |
| 68 | Cl.O=C(O)c1ccc2c(c1)SCC(c1ccc(Cl)cc1Cl)=C2c1ccc(CC2CCN(CCCF)C2)cc1 (single isomer, unassigned; isomer 1) [Compound 25, 3-(2,4-dichlorophenyl)-4-(4-((1-(3-fluoropropyl)pyrrolidin-3-yl)methyl)phenyl)-2H-thiochromene-7-carboxylic acid hydrochloride, Isomer 1] |
| 86 | Cl.O=C(O)c1ccc2c(c1)CCCC(c1ccc(F)cc1F)=C2c1ccc(CC2CCN(CCCF)C2)cc1 (single isomer, unassigned; isomer 1) [Compound 19, 8-(2,4-difluorophenyl)-9-(4-((1-(3-fluoropropyl)pyrrolidin-3-yl)methyl)phenyl)-6,7-dihydro-5H-benzo[7]annulene-3-carboxylic acid hydrochloride, Isomer 1] |
| 73 | Cl.O=C(O)c1ccc2c(c1)CCCC(c1ccc(F)cc1Cl)=C2c1ccc(CC2CCN(CCC(F)F)C2)cc1 (single isomer, unassigned; isomer 1) [Compound 27, 8-(2-chloro-4-fluorophenyl)-9-(4-((1-(3,3-difluoropropyl)pyrrolidin-3-yl)methyl)phenyl)-6,7-dihydro-5H-benzo[7]annulene-3-carboxylic acid hydrochloride, Isomer 1] |
| 92 | Cl.O=C(O)c1ccc2c(c1)CCC(c1ccc(Cl)cc1Cl)=C2c1ccc(CC2CCN(CCCF)C2)cc1 (single isomer, unassigned; isomer 1) [Compound 36, 6-(2,4-dichlorophenyl)-5-(4-((1-(3-fluoropropyl)pyrrolidin-3-yl)methyl)phenyl)-7,8-dihydronaphthalene-2-carboxylic acid hydrochloride, Isomer 1] |
| 84 | O=C(O)c1ccc2c(c1)CCCC(c1ccc(Cl)cc1Cl)=C2c1ccc(C(F)(F)C2CCN(CCCF)C2)cc1 (single isomer, unassigned; isomer 1) [Compound 26, 8-(2,4-dichlorophenyl)-9-(4-(difluoro(1-(3-fluoropropyl)pyrrolidin-3-yl)methyl)phenyl)-6,7-dihydro-5H-benzo[7]annulene-3-carboxylic acid, Isomer 1] |
| 73 | Cl.O=C(O)c1ccc2c(c1)CCCC(c1cccc(Cl)c1)=C2c1ccc(CC2CCN(CCCF)C2)cc1 (single isomer, unassigned; isomer 1) [Compound 40, 8-(3-chlorophenyl)-9-(4-((1-(3-fluoropropyl)pyrrolidin-3-yl)methyl)phenyl)-6,7-dihydro-5H-benzo[7]annulene-3-carboxylic acid hydrochloride, Isomer 1] |
| 86 | O=C(O)c1ccc2c(c1)CCCC(c1ccc(F)cc1C(F)(F)F)=C2c1ccc(CC2CCN(CCCF)C2)cc1 (single isomer, unassigned; isomer 1) [Compound 18, 8-(4-fluoro-2-(trifluoromethyl)phenyl)-9-(4-((1-(3-fluoropropyl)pyrrolidin-3-yl)methyl)phenyl)-6,7-dihydro-5H-benzo[7]annulene-3-carboxylic acid, Isomer 1] |
| 92 | Cl.O=C(O)c1ccc2c(c1)CCCC(c1ccc(C(F)(F)F)cc1)=C2c1ccc(CC2CCN(CCCF)C2)cc1 (single isomer, unassigned; isomer 1) [Compound 38, 9-(4-((1-(3-fluoropropyl)pyrrolidin-3-yl)methyl)phenyl)-8-(4-(trifluoromethyl)phenyl)-6,7-dihydro-5H-benzo[7]annulene-3-carboxylic acid hydrochloride, Isomer 1] |
| 90 | Cc1c(F)cccc1C1=C(c2ccc(CC3CCN(CCCF)C3)cc2)c2ccc(C(=O)O)cc2CCC1.Cl (single isomer, unassigned; isomer 1) [Compound 20, 8-(3-fluoro-2-methylphenyl)-9-(4-((1-(3-fluoropropyl)pyrrolidin-3-yl)methyl)phenyl)-6,7-dihydro-5H-benzo[7]annulene-3-carboxylic acid hydrochloride, Isomer 1] |
| 88 | Cc1c(Cl)cccc1C1=C(c2ccc(CC3CCN(CCCF)C3)cc2)c2ccc(C(=O)O)cc2CCC1 (single isomer, unassigned; isomer 1) [Compound 15, 8-(3-chloro-2-methylphenyl)-9-(4-((1-(3-fluoropropyl)pyrrolidin-3-yl)methyl)phenyl)-6,7-dihydro-5H-benzo[7]annulene-3-carboxylic acid, Isomer 1] |

Reference: patent publication US20250248970A1, “NOVEL SUBSTITUTED FLUORINATED N-PROPYL-PYRROLIDINE COMPOUNDS, PROCESSES FOR THEIR PREPARATION AND THERAPEUTIC USES THEREOF” (SANOFI, priority 2022, published 2025)
